Results published in patent US20220267374A1, “IMMUNITY INDUCER AND PHARMACEUTICAL COMPOSITION FOR PREVENTING OR TREATING AGING-RELATED DISEASES” (priority 2019, published 2022).
Ends that are not written are not given here.

What was measured:
[1] = tested on: Gpnmb, Cdkn1a, and Cdkn2a; assay: RNA analysis (qPCR) of adipose tissue; format: in vivo, C57BL/6 mice; settings: HFD-fed mice, 16 weeks of age, s.c. vaccination at 8 weeks of age, FIG. 2C
Description: Total RNA (1 μg) was isolated from adipose tissue samples using RNA-Bee (TEL-TEST Inc.). Real-time PCR (qPCR) was performed using a Light Cycler 480 (Roche) equipped with a universal probe library and a Light Cycler 480 probe master (Roche) according to the manufacturer's instructions. Rplp0 was used as an internal control.
RNA analysis of Gpnmb, Cdkn1a, and Cdkn2a was performed using the same method as in “4.” of Reference Example 1, except that adipose tissue collected from C57BL/6 mice (16 weeks of age) bred by feeding HFD from 4 weeks of age and administered with peptide vaccine 1 or a control vaccine by subcutaneous injection at a time point of 8 weeks of age was used. In FIG. 2C, “Cont vac” is a C57BL/6 mouse administered with a control vaccine, and “Gpnmb vac” is a C57BL/6 mouse administered with peptide vaccine 1.

[2] = Open field test; format: in vivo, C57BL/6 mice; settings: normal diet, s.c. vaccination at 50 weeks of age; vs control vaccine; FIG. 2L
Description: C57BL/6 mice bred by feeding a normal diet and administered with peptide vaccine 1 or a control vaccine by subcutaneous injection at a time point of 50 weeks of age were used. Open field tests were performed before and after vaccination (50 and 70 weeks of age). The open field test is a test that measures voluntary activity in a novel environment. Each mouse was placed in an open field and tested for 6 minutes. The total action time (seconds) and average speed (cm/sec) of each mouse during the test were measured. The difference between the measurement results at 50 weeks of age and the measurement results at 70 weeks of age is shown in FIG. 2L. In FIG. 2L, “Cont vac” is a C57BL/6 mouse administered with the control vaccine, and “Gpnmb vac” is a C57BL/6 mouse administered with the peptide vaccine 1.

[3] = Survival curve (Kaplan-Meier); format: in vivo, Zmpste24 KO mice; settings: normal diet, s.c. vaccination at 10 weeks of age; regardless of gender; FIG. 2M
Description: In addition, Zmpste24-deficient (KO) mice (model of Hutchinson-Gilford progeria syndrome, MGI: 2158363) were used as a model of premature aging mice. Generation and genotyping of Zmpste24 KO mice followed the previous report (http://www.informatics.jax.org/allele/MGI:2158363).
Zmpste24 KO mice were bred on normal diet. For some Zmpste24 KO mice, peptide vaccine 1 was administered by subcutaneous injection at a time point of 10 weeks of age (about 50 weeks of age in C57BL/6 mice). Survival curves were calculated by the Kaplan-Meier method and compared by a log-rank test (refer to FIG. 2M).

[4] = tested on: GPNMB protein; assay: Antibody titer by ELISA in plasma of vaccinated mice; format: in vivo, C57BL/6 mice; settings: vs control vaccine group; KLH-bound peptide 20 μg with Titer Max Gold s.c. at 8 weeks of age, HFD-fed mice; plasma up to 6 weeks; FIG. 2A
Description: First, the antibody titers of the obtained two peptide vaccines were examined. Peptide vaccine 1 or peptide vaccine 2 (20 μg) and Titer Max Gold adjuvant (Titer Max USA) conjugated with KLH as carrier protein for induction of cytotoxic antibody were mixed in two syringes according to the manufacturer's protocol for emulsification. Subsequently, eight-week-old C57BL/6 mice fed with HFD from 4 weeks of age were subcutaneously injected with KLH-binding antigen peptide (20 μg) with a Titer Max Gold adjuvant to induce cytotoxic antibodies. C57BL/6 mice in the control group were subcutaneously injected with a KLH solution (hereinafter, referred to as “control vaccine”) mixed with Titer Max Gold in an equal amount. Plasma was collected from the tail vein of each mouse immediately after administration of the peptide vaccine and after 2, 4, and 6 weeks for antibody titer analysis. The antibody titer produced by injection of each peptide was measured by ELISA. Specifically, first, a 96-well microtiter plate (Nunc-Immuno MicroWell 96-well solid plate, Thermo Scientific) was coated using a carbonate buffer containing peptide vaccine 1 or peptide vaccine 2 bonded to bovine serum albumin (BSA). […] After reacting with the TMB substrate (Sigma-Aldrich, T0440), the optical density was measured at 450 nm (0D450) using a microtiter plate reader (iMark microplate reader, Bio-Rad).

[5] = tested on: GPNMB-positive cells; assay: Gpnmb-dependent luciferase activity in the aorta; format: in vivo, ApoE/Gpnmb-DTR mice; settings: HFD from 4 to 16 weeks of age, s.c. vaccination at 8 weeks of age; vs control vaccine; FIG. 2J
Description: Gpnmb-DTR mouse bred by feeding normal diet or HFD for 4 weeks, and Gpnmb-DTR mouse bred by feeding HFD for 4 weeks, and then injecting DT (50 μg/kg body weight) at 2-week intervals (12 weeks of age and 14 weeks of age) intraperitoneally twice while continuing to feed HFD (16 weeks of age) were subjected to in vivo luciferase imaging analysis using the IVIS imaging system (Perkin Elmer). Mice were shaved ventrally, anesthetized with isoflurane (Wako Pure Chemicals Industries), and injected intraperitoneally with luciferin (150 mg/kg body weight) according to the manufacturer's instructions (Vivo-Glo; Promega). Luciferase activity was monitored 5 minutes after luciferin administration. Signals were analyzed using Living Image software (Perkin Elmer) to quantify luciferase activity. […]
Detection of arteriosclerotic plaque and analysis of Gpnmb-dependent luciferase activity were performed using the same method as in “6.” and “2.” of Reference Example 1, except that ApoE/Gpnmb-DTR mice (16 weeks of age) bred while feeding HFD for 12 weeks from 4 to 16 weeks of age and administered with peptide vaccine 1 or a control vaccine by subcutaneous injection at a time point of 8 weeks of age were used (refer to FIG. 2J). The Oil Red O stained region was quantified by Image-J software (refer to FIG. 2K). […]

Sequence: RRGDGRWKD (also: KLH conjugate; listed as Mus musculus) [peptide vaccine 1, peptide of positions 63 to 71 of mouse GPNMB protein]
- expression of Cdkn1a [1]: downregulation
- expression of Cdkn2a [1]: downregulation
- results in the open field test (total action time, average speed; difference 50 vs 70 weeks of age) [2]: significantly improved
- lifespan (survival curve) [3]: extended
- antibody titer against GPNMB protein [4]: significantly higher
- Gpnmb-dependent luciferase activity in the aorta [5]: decreased
